# Source: patent publication US10975078B2, “Fused indazole pyridone compounds as antivirals” (priority 2017, dated 2021)
# System: HBsAg secretion, HepG2-Clone42 cells (Tet-inducible HBV-expressing, HBV ayw strain)
# Experiment: HBsAg assay (HBsAg ELISA, secreted HBV sAg from HepG2-Clone42 cells)
# Type: cell-based
# Details: Hepatitis B virus, read-out: HBsAg (nM), EC50 = concentration at which HBsAg secretion was reduced 50% compared to DMSO control
# Procedure, shortened: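 HepG2-Clone42 cells (Tet-inducible, integrated 1.3-mer HBV ayw) treated 24 h post-seeding with five-fold serial compound dilutions, 0.5% DMSO final. Secreted HBsAg measured by ELISA (A450); EC50 for 50% reduction vs DMSO control after background subtraction, four-parameter logistic fit.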
row,SMILES,EC50 [nM]
1,"CC(C)(C)C1Cn2nc3c(OC4CCOC4)cccc3c2-c2cc(=O)c(C(=O)O)cn21 (racemic) [Example 2.37, 6-(tert-butyl)-2-oxo-10-((tetrahydrofuran-3-yl)oxy)-6,7-dihydro-2H-pyrido[2′,1′:3,4]pyrazino[1,2-b]indazole-3-carboxylic Acid]",1 to 100
2,"CN(C)CCCOc1cccc2c3n(nc12)CC(C(C)(C)C)n1cc(C(=O)O)c(=O)cc1-3 (racemic) [Example 2.43, 6-(tert-butyl)-10-(3-(dimethylamino)propoxy)-2-oxo-6,7-dihydro-2H-pyrido[2′,1′:3,4]pyrazino[1,2-b]indazole-3-carboxylic Acid]",> 100
3,"CC(C)(C)C1Cn2nc3c(OCC4(CS(C)(=O)=O)CC4)cccc3c2-c2cc(=O)c(C(=O)O)cn21 (racemic) [Example 2.24, 6-(tert-butyl)-10-((1-((methylsulfonyl)methyl)cyclopropyl)methoxy)-2-oxo-6,7-dihydro-2H-pyrido[2′,1′:3,4]pyrazino[1,2-b]indazole-3-carboxylic Acid]",> 100
4,"COCCCOc1cccc2c3n(nc12)CC(C(C)(C)C)n1cc(C(=O)O)c(=O)cc1-3 (single isomer, unassigned) [Example 2.1-I, 6-(tert-butyl)-10-(3-methoxypropoxy)-2-oxo-6,7-dihydro-2H-pyrido[2′,1′:3,4]pyrazino[1,2-b]indazole-3-carboxylic Acid]",< 1
5,"CC(C)(C)C1Cn2nc3c(OCCCS(C)(=O)=O)cccc3c2-c2cc(=O)c(C(=O)O)cn21 (racemic) [Example 2.30, 6-(tert-butyl)-10-(3-(methylsulfonyl)propoxy)-2-oxo-6,7-dihydro-2H-pyrido[2′,1′:3,4]pyrazino[1,2-b]indazole-3-carboxylic Acid]",1 to 100
6,"CC[C@H](C)COc1cccc2c3n(nc12)CC(C(C)(C)C)n1cc(C(=O)O)c(=O)cc1-3 (mixture of isomers) [Example 2.6, 6-(tert-butyl)-10-((S)-2-methylbutoxy)-2-oxo-6,7-dihydro-2H-pyrido[2′,1′:3,4]pyrazino[1,2-b]indazole-3-carboxylic Acid]",< 1
7,"CC(C)(C)C1Cn2nc3c(OC4COC4)cccc3c2-c2cc(=O)c(C(=O)O)cn21 (racemic) [Example 2.26, 6-(tert-butyl)-10-(oxetan-3-yloxy)-2-oxo-6,7-dihydro-2H-pyrido[2′,1′:3,4]pyrazino[1,2-b]indazole-3-carboxylic Acid]",1 to 100

# Same assay, conditions: read-out: HBsAg, EC50 = concentration at which HBsAg secretion was reduced 50% compared to DMSO control
row,SMILES,EC50 [nM]
1,"COCCOc1cccc2c3n(nc12)CC(C(C)(C)C)n1cc(C(=O)O)c(=O)cc1-3 (single isomer, unassigned) [Example 2.2-I, 6-(tert-butyl)-10-(2-methoxyethoxy)-2-oxo-6,7-dihydro-2H-pyrido[2′,1′:3,4]pyrazino[1,2-b]indazole-3-carboxylic Acid]",> 100
2,"COc1cccc2c3n(nc12)CC(C(C)(C)C)n1cc(C(=O)O)c(=O)cc1-3 (single isomer, unassigned) [Example 1.1-I, 6-(tert-butyl)-10-methoxy-2-oxo-6,7-dihydro-2H-pyrido[2′,1′:3,4]pyrazino[1,2-b]indazole-3-carboxylic acid]",< 1
3,"CC(C)(C)C1Cn2nc3ccccc3c2-c2cc(=O)c(C(=O)O)cn21 (single isomer, unassigned) [Example 1.5-I, 6-(tert-butyl)-2-oxo-6,7-dihydro-2H-pyrido[2′,1′:3,4]pyrazino[1,2-b]indazole-3-carboxylic acid]",1 to 100
4,"COCCCOc1cccc2c3n(nc12)CC(C(C)(C)C)n1cc(C(=O)O)c(=O)c(F)c1-3 (single isomer, unassigned) [Example 8.1-I, 6-(tert-butyl)-1-fluoro-10-(3-methoxypropoxy)-2-oxo-6,7-dihydro-2H-pyrido[2′,1′:3,4]pyrazino[1,2-b]indazole-3-carboxylic Acid]",> 100
5,"CC(C)(C)C1Cn2nc3c(OC[C@@H]4CCC(=O)N4)cccc3c2-c2cc(=O)c(C(=O)O)cn21 (single isomer, unassigned) [Example 2.33-II]",> 100
6,"CC(C)Oc1cccc2c3n(nc12)CC(C(C)(C)C)n1cc(C(=O)O)c(=O)cc1-3 (single isomer, unassigned) [Example 2.47-II, 6-(tert-butyl)-10-isopropoxy-2-oxo-6,7-dihydro-2H-pyrido[2′,1′:3,4]pyrazino[1,2-b]indazole-3-carboxylic Acid]",< 1
7,"COCCCOc1cccc2c3n(nc12)CC(C(C)(C)C)n1cc(C(=O)O)c(=O)cc1-3 (single isomer, unassigned) [Example 2.1-II, 6-(tert-butyl)-10-(3-methoxypropoxy)-2-oxo-6,7-dihydro-2H-pyrido[2′,1′:3,4]pyrazino[1,2-b]indazole-3-carboxylic Acid]",1 to 100
